Laboratory results reported in ChEMBL document CHEMBL1201861, “Genomics of Drug Sensitity in Cancer screening data, Wellcome Trust Sanger Institute”.

What was measured:
PFSK-1 = assay: cells; assay type: functional, cell-based; conditions: Homo sapiens
Description: SANGER: Inhibition of human PFSK-1 cell growth in a cell viability assay.

UACC-893 = assay: cells; assay type: functional, cell-based; conditions: Homo sapiens
Description: SANGER: Inhibition of human UACC-893 cell growth in a cell viability assay.

KU-19-19 = assay: cells; assay type: functional, cell-based; conditions: Homo sapiens
Description: SANGER: Inhibition of human KU-19-19 cell growth in a cell viability assay.

OAW-28 = assay: cells; assay type: functional, cell-based; conditions: Homo sapiens
Description: SANGER: Inhibition of human OAW-28 cell growth in a cell viability assay.

RL = assay: cells; assay type: functional, cell-based, Homo sapiens; conditions: Homo sapiens, RL
Description: SANGER: Inhibition of human RL cell growth in a cell viability assay.

COLO-680N = assay: cells; assay type: functional, cell-based; conditions: Homo sapiens
Description: SANGER: Inhibition of human COLO-680N cell growth in a cell viability assay.

HCC1806 = assay: cells; assay type: functional, cell-based; conditions: Homo sapiens
Description: SANGER: Inhibition of human HCC1806 cell growth in a cell viability assay.

BOKU = assay: cells; assay type: functional, cell-based; conditions: Homo sapiens
Description: SANGER: Inhibition of human BOKU cell growth in a cell viability assay.

NCI-H1693 = assay: cells; assay type: functional, cell-based; conditions: Homo sapiens
Description: SANGER: Inhibition of human NCI-H1693 cell growth in a cell viability assay.

SKG-IIIa = assay: cells; assay type: functional, cell-based; conditions: Homo sapiens
Description: SANGER: Inhibition of human SKG-IIIa cell growth in a cell viability assay.

WSU-NHL = assay: cells; assay type: functional, cell-based, Homo sapiens; conditions: Homo sapiens, WSU-NHL
Description: SANGER: Inhibition of human WSU-NHL cell growth in a cell viability assay.

HCC 2998 = assay: cells; assay type: functional, cell-based; conditions: Homo sapiens
Description: SANGER: Inhibition of human HCC2998 cell growth in a cell viability assay.

NCI-H1417 = assay: cells; assay type: functional, cell-based, Homo sapiens; conditions: Homo sapiens, NCI-H1417
Description: SANGER: Inhibition of human NCI-H1417 cell growth in a cell viability assay.

NCI-H2170 = assay: cells; assay type: functional, cell-based; conditions: Homo sapiens
Description: SANGER: Inhibition of human NCI-H2170 cell growth in a cell viability assay.

Huh-7 = assay: cells; assay type: functional, cell-based; conditions: Homo sapiens
Description: SANGER: Inhibition of human HuH-7 cell growth in a cell viability assay.

LoVo = assay: cells; assay type: functional, cell-based; conditions: Homo sapiens
Description: SANGER: Inhibition of human LoVo cell growth in a cell viability assay.

A-375 = assay: cells; assay type: functional, cell-based; conditions: Homo sapiens
Description: SANGER: Inhibition of human A375 cell growth in a cell viability assay.

CaR-1 = assay: cells; assay type: functional, cell-based; conditions: Homo sapiens
Description: SANGER: Inhibition of human CaR-1 cell growth in a cell viability assay.

LB373-MEL-D = assay: cells; assay type: functional, cell-based, Homo sapiens; conditions: Homo sapiens, LB373-MEL-D
Description: SANGER: Inhibition of human LB373-MEL-D cell growth in a cell viability assay.

BL-41 = assay: cells; assay type: functional, cell-based; conditions: Homo sapiens
Description: SANGER: Inhibition of human BL-41 cell growth in a cell viability assay.

A-431 = assay: cells; assay type: functional, cell-based; conditions: Homo sapiens
Description: SANGER: Inhibition of human A431 cell growth in a cell viability assay.

THP-1 = assay: cells; assay type: functional, cell-based, Homo sapiens; conditions: Homo sapiens, THP-1
Description: SANGER: Inhibition of human THP-1 cell growth in a cell viability assay.

U-698-M = assay: cells; assay type: functional, cell-based, Homo sapiens; conditions: Homo sapiens, U-698-M
Description: SANGER: Inhibition of human U-698-M cell growth in a cell viability assay.

COLO-792 = assay: cells; assay type: functional, cell-based; conditions: Homo sapiens
Description: SANGER: Inhibition of human COLO-792 cell growth in a cell viability assay.

EB2 = assay: cells; assay type: functional, cell-based, Homo sapiens; conditions: Homo sapiens, EB2
Description: SANGER: Inhibition of human EB2 cell growth in a cell viability assay.

PC-14 = assay: cells; assay type: functional, cell-based; conditions: Homo sapiens
Description: SANGER: Inhibition of human PC-14 cell growth in a cell viability assay.

NCI-H1522 = assay: cells; assay type: functional, cell-based, Homo sapiens; conditions: Homo sapiens, NCI-H1522
Description: SANGER: Inhibition of human NCI-H1522 cell growth in a cell viability assay.

23132-87 = assay: cells; assay type: functional, cell-based; conditions: Homo sapiens
Description: SANGER: Inhibition of human 23132-87 cell growth in a cell viability assay.

DMS-79 = assay: cells; assay type: functional, cell-based, Homo sapiens; conditions: Homo sapiens, DMS-79
Description: SANGER: Inhibition of human DMS-79 cell growth in a cell viability assay.

MHH-ES-1 = assay: cells; assay type: functional, cell-based; conditions: Homo sapiens
Description: SANGER: Inhibition of human MHH-ES-1 cell growth in a cell viability assay.

OE33 = assay: cells; assay type: functional, cell-based; conditions: Homo sapiens
Description: SANGER: Inhibition of human OE33 cell growth in a cell viability assay.

HEC-1 = assay: cells; assay type: functional, cell-based; conditions: Homo sapiens
Description: SANGER: Inhibition of human HEC-1 cell growth in a cell viability assay.

EHEB = assay: cells; assay type: functional, cell-based; conditions: Homo sapiens
Description: SANGER: Inhibition of human EHEB cell growth in a cell viability assay.

CAL-39 = assay: cells; assay type: functional, cell-based; conditions: Homo sapiens
Description: SANGER: Inhibition of human CAL-39 cell growth in a cell viability assay.

HLE = assay: cells; assay type: functional, cell-based; conditions: Homo sapiens
Description: SANGER: Inhibition of human HLE cell growth in a cell viability assay.

COR-L23 = assay: cells; assay type: functional, cell-based; conditions: Homo sapiens
Description: SANGER: Inhibition of human COR-L23 cell growth in a cell viability assay.

SU-DHL-1 = assay: SANGER: Inhibition of human SU-DHL-1 cell growth in a cell viability assay.; assay type: functional, cell-based; conditions: Homo sapiens, SU-DHL-1
U2OS = assay: cells; assay type: functional, cell-based, U-2-OS; conditions: Homo sapiens
Description: SANGER: Inhibition of human U-2-OS cell growth in a cell viability assay.

SW626 = assay: cells; assay type: functional, cell-based; conditions: Homo sapiens
Description: SANGER: Inhibition of human SW626 cell growth in a cell viability assay.

SAS = assay: cells; assay type: functional, cell-based; conditions: Homo sapiens
Description: SANGER: Inhibition of human SAS cell growth in a cell viability assay.

HuP-T4 = assay: cells; assay type: functional, cell-based; conditions: Homo sapiens
Description: SANGER: Inhibition of human HuP-T4 cell growth in a cell viability assay.

639-V = assay: cells; assay type: functional, cell-based; conditions: Homo sapiens
Description: SANGER: Inhibition of human 639-V cell growth in a cell viability assay.

TE-15 = assay: cells; assay type: functional, cell-based, Homo sapiens; conditions: Homo sapiens, TE-15
Description: SANGER: Inhibition of human TE-15 cell growth in a cell viability assay.

Capan-2 = assay: cells; assay type: functional, cell-based; conditions: Homo sapiens
Description: SANGER: Inhibition of human Capan-2 cell growth in a cell viability assay.

786-0 = assay: cells; assay type: functional, cell-based; conditions: Homo sapiens
Description: SANGER: Inhibition of human 786-0 cell growth in a cell viability assay.

NCI-H524 = assay: cells; assay type: functional, cell-based, Homo sapiens; conditions: Homo sapiens, NCI-H524
Description: SANGER: Inhibition of human NCI-H524 cell growth in a cell viability assay.

COLO-679 = assay: cells; assay type: functional, cell-based; conditions: Homo sapiens
Description: SANGER: Inhibition of human COLO-679 cell growth in a cell viability assay.

SBC-5 = assay: cells; assay type: functional, cell-based; conditions: Homo sapiens
Description: SANGER: Inhibition of human SBC-5 cell growth in a cell viability assay.

DG-75 = assay: cells; assay type: functional, cell-based, Homo sapiens; conditions: Homo sapiens, DG-75
Description: SANGER: Inhibition of human DG-75 cell growth in a cell viability assay.

ST486 = assay: SANGER: Inhibition of human ST486 cell growth in a cell viability assay.; assay type: functional, cell-based; conditions: Homo sapiens, ST486
769-P = assay: cells; assay type: functional, cell-based; conditions: Homo sapiens
Description: SANGER: Inhibition of human 769-P cell growth in a cell viability assay.

NCI-H322M = assay: cells; assay type: functional, cell-based, Homo sapiens; conditions: Homo sapiens, NCI-H322M
Description: SANGER: Inhibition of human NCI-H322M cell growth in a cell viability assay.

SW1710 = assay: cells; assay type: functional, cell-based; conditions: Homo sapiens
Description: SANGER: Inhibition of human SW1710 cell growth in a cell viability assay.

C-33-A = assay: cells; assay type: functional, cell-based; conditions: Homo sapiens
Description: SANGER: Inhibition of human C-33-A cell growth in a cell viability assay.

YAPC = assay: cells; assay type: functional, cell-based; conditions: Homo sapiens
Description: SANGER: Inhibition of human YAPC cell growth in a cell viability assay.

KYSE-520 cell line = assay: cells; assay type: functional, cell-based; conditions: Homo sapiens
Description: SANGER: Inhibition of human KYSE-520 cell growth in a cell viability assay.

LU-99A = assay: cells; assay type: functional, cell-based; conditions: Homo sapiens
Description: SANGER: Inhibition of human LU-99A cell growth in a cell viability assay.

BL-70 = assay: SANGER: Inhibition of human BL-70 cell growth in a cell viability assay.; assay type: functional, cell-based; conditions: Homo sapiens, BL-70
MDA-MB-157 = assay: cells; assay type: functional, cell-based; conditions: Homo sapiens
Description: SANGER: Inhibition of human MDA-MB-157 cell growth in a cell viability assay.

KP-N-YN = assay: cells; assay type: functional, cell-based; conditions: Homo sapiens
Description: SANGER: Inhibition of human KP-N-YN cell growth in a cell viability assay.

## COC(=O)[C@H](CCSC)NC(=O)c1ccc(NC[C@@H](N)CS)cc1-c1ccccc1
PFSK-1
  IC50: > 1020 nM
UACC-893
  IC50: > 1020 nM
KU-19-19
  IC50: > 1020 nM
OAW-28
  IC50: > 1020 nM
RL
  IC50: > 1020 nM
COLO-680N
  IC50: > 1020 nM
HCC1806
  IC50: > 1020 nM
BOKU
  IC50: > 1020 nM
NCI-H1693
  IC50: > 1020 nM
SKG-IIIa
  IC50: > 1020 nM
WSU-NHL
  IC50: > 1020 nM
HCC 2998
  IC50: > 1020 nM
NCI-H1417
  IC50: > 1020 nM
NCI-H2170
  IC50: > 1020 nM
Huh-7
  IC50: > 1020 nM
LoVo
  IC50: > 1020 nM
A-375
  IC50: > 1020 nM
CaR-1
  IC50: > 1020 nM
LB373-MEL-D
  IC50: > 1020 nM
BL-41
  IC50: > 1020 nM
A-431
  IC50: > 1020 nM
THP-1
  IC50: > 1020 nM
U-698-M
  IC50: > 1020 nM
COLO-792
  IC50: > 1020 nM
EB2
  IC50: > 1020 nM
PC-14
  IC50: > 1020 nM
NCI-H1522
  IC50: > 1020 nM
23132-87
  IC50: > 1020 nM
DMS-79
  IC50: > 1020 nM
MHH-ES-1
  IC50: > 1020 nM
OE33
  IC50: > 1020 nM
HEC-1
  IC50: > 1020 nM
EHEB
  IC50: > 1020 nM
CAL-39
  IC50: > 1020 nM
HLE
  IC50: > 1020 nM
COR-L23
  IC50: > 1020 nM
SU-DHL-1
  IC50: > 1020 nM
U2OS
  IC50: > 1020 nM
SW626
  IC50: > 1020 nM
SAS
  IC50: > 1020 nM
HuP-T4
  IC50: > 1020 nM
639-V
  IC50: > 1020 nM
TE-15
  IC50: > 1020 nM
Capan-2
  IC50: > 1020 nM
786-0
  IC50: > 1020 nM
NCI-H524
  IC50: > 1020 nM
COLO-679
  IC50: > 1020 nM
SBC-5
  IC50: > 1020 nM
DG-75
  IC50: > 1020 nM
ST486
  IC50: > 1020 nM
769-P
  IC50: > 1020 nM
NCI-H322M
  IC50: > 1020 nM
SW1710
  IC50: > 1020 nM
C-33-A
  IC50: > 1020 nM
YAPC
  IC50: > 1020 nM
KYSE-520 cell line
  IC50: > 1020 nM
LU-99A
  IC50: > 1020 nM
BL-70
  IC50: > 1020 nM
MDA-MB-157
  IC50: > 1020 nM

## COc1ccc(-c2cc3nccn3c(Nc3ncccc3C(N)=O)n2)cc1OC
PFSK-1
  IC50: 7190 nM
UACC-893
  IC50: > 8000 nM
KU-19-19
  IC50: > 8000 nM
OAW-28
  IC50: > 8000 nM
RL
  IC50: > 8000 nM
COLO-680N
  IC50: > 8000 nM
HCC1806
  IC50: > 8000 nM
BOKU
  IC50: > 8000 nM
NCI-H1693
  IC50: > 8000 nM
SKG-IIIa
  IC50: > 8000 nM
KP-N-YN
  IC50: > 8000 nM
WSU-NHL
  IC50: 1380 nM
HCC 2998
  IC50: 5550 nM
NCI-H1417
  IC50: > 8000 nM
NCI-H2170
  IC50: 5350 nM
Huh-7
  IC50: > 8000 nM
LoVo
  IC50: 2610 nM
A-375
  IC50: 1270 nM
CaR-1
  IC50: > 8000 nM
LB373-MEL-D
  IC50: > 8000 nM
BL-41
  IC50: 1390 nM
A-431
  IC50: 1730 nM
THP-1
  IC50: > 8000 nM
U-698-M
  IC50: 1020 nM
COLO-792
  IC50: > 8000 nM
EB2
  IC50: 837 nM
PC-14
  IC50: > 8000 nM
NCI-H1522
  IC50: > 8000 nM
23132-87
  IC50: > 8000 nM
DMS-79
  IC50: > 8000 nM
MHH-ES-1
  IC50: > 8000 nM
OE33
  IC50: > 8000 nM
HEC-1
  IC50: > 8000 nM
EHEB
  IC50: 3790 nM
CAL-39
  IC50: 3570 nM
HLE
  IC50: 3230 nM
COR-L23
  IC50: 2380 nM
SU-DHL-1
  IC50: > 8000 nM
U2OS
  IC50: > 8000 nM
SW626
  IC50: > 8000 nM
SAS
  IC50: > 8000 nM
HuP-T4
  IC50: 7990 nM
639-V
  IC50: 1430 nM
TE-15
  IC50: 1280 nM
Capan-2
  IC50: > 8000 nM
786-0
  IC50: 1360 nM
NCI-H524
  IC50: > 8000 nM
COLO-679
  IC50: > 8000 nM
SBC-5
  IC50: > 8000 nM
DG-75
  IC50: > 8000 nM
ST486
  IC50: 576 nM
769-P
  IC50: 980 nM
NCI-H322M
  IC50: > 8000 nM
SW1710
  IC50: 1660 nM
C-33-A
  IC50: 2530 nM
YAPC
  IC50: > 8000 nM
KYSE-520 cell line
  IC50: > 8000 nM
LU-99A
  IC50: > 8000 nM
BL-70
  IC50: 671 nM
MDA-MB-157
  IC50: > 8000 nM
